Assay results as given in US20110092465A1, “MONOMERIC PYROPHOSPHATE COMPLEXES AND METHODS OF TREATMENT USING THE COMPLEXES” (SYRACUSE UNIVERSITY, priority 2009, published 2011).
Read-outs that look alike come from different tables or passages of the source.

What was measured:
[1] = test system: A2780/AD cell line; type: cell-based, human
Experimental: Cisplatin was used as a control and for comparative purposes. The IC50 values (μM) are for compounds 1-4 in A2780/AD cell line. Cisplatin controls and dimeric complexes previously reported are also shown for comparison:
Experimental details for the in-vitro cell testing of compounds [Co(phen)2(H2P2O7)].4H2O (1.4H2O), [Ni(phen)2(H2P2O7)].8H2O (2.8H2O) and [Cu(phen)(H2O)(H2P2O7)]. For in vitro cell studies, all experiments were performed in a Labconco Purifier I laminar flow hood that had been disinfected with 70% ethanol and irradiated with UV light. The A2780/AD cell line that was used for testing was provided by the Fox Chase Cancer Center, Philadelphia (USA). Fetal bovine serum (FBS) was purchased from Hyclone. Penicillin-streptomycin solution with 10,000 units penicillin and 10 mg/mL streptomycin in 0.9% NaCl was obtained from Sigma. Gibco RPMI 1640 growth media that contained L-glutamine and phenol red was supplied by Invitrogen. Cellgro Cellstripper, a non-enzymatic cell dissociation solution, was obtained from Mediatech. Growth media were filtered with 0.22 μm filter (VWR). Cell Counting Kit 8 (CCK8) was purchased from Dojindo. Cells were incubated and grown in an incubator that was purchased from VWR. Optical densities of the cell cultures were measured at 450 nm with Thermo Multiskan EX that was equipped with Ascent software version 2.6.
Cell lines and culture conditions. The A2780/AD cell line was cultured in BD Falcon 25 cm^2 surface area, canted neck flaks with vented cap (VWR) containing RPMI media supplemented with 10% FBS and 10% Penicillin-Streptomycin solution by volume. Subcultures were generated by incubating the cells with Cellstripper, and passing cells at a 1:10 culture ratio.
Drug cytotoxicity. Cells used for studies were diluted to make either a solution of 50,000 cells/mL, used for the 72 h studies, or 80,000 cells/mL, used for the 6 and 24 h studies. 100 μL of the cell solution was added to the wells of a 96 well plate, and the cells were allowed to adhere overnight. The media was then removed from the 96 well plates and replaced with either 100 μL (for 6 h studies) or 200 μL (for 24 and 72 h studies) of media containing drug. Drug solutions were prepared by dissolving the drug in media (compounds 2, 4) or in a 25% methanol solution (compounds 1, 3). The solutions were filter sterilized and serially diluted 1:10. The concentration of methanol was kept below 5% for all concentrations studied. Cisplatin was prepared by dissolving in PBS and sonicating for 1 h to create a final concentration of 0.5 mg/mL (1.66 mM). Each drug was tested over 9 concentrations in triplicate with each point in done in triplicate. After the incubation period, the drug containing media was removed and replaced with 100 μL of media containing 10% CCK-8 solution by volume. The plates were incubated until the control reached 0.8-1.2 absorbance at 450 nm (2, 1.5 and 0.5 h for the 6, 24, 72 h runs respectively). The absorbance was measured at 450 nm via a plate reader. A blank was subtracted from all wells, and the results were plotted as a percentage compared to the control vs. concentration of drug. IC50 values were calculated by fitting the data using Prism Graphpad 5 using a nonlinear, dose response curve with a 4 variable fit. The reported ICso values are an average of at least 3 runs reported with standard deviation.

[2] = test system: adriamycin-resistant human ovarian cancer cell line (A2780/AD); test: Proliferation colorimetric assay (WSK-8) of compounds 11-13 in A2780/AD; type: cell-based; conditions: for toxicity in words: 24 and 72 h
Experimental: Compounds 11, 12, and 13 were tested against the adriamycin-resistant human ovarian cancer cell line (A2780/AD) over a time period of 24 and 72 h (Table 8 below). Cisplatin was used as an external control. Adriamycin resistant ovarian cancer cell line (A2780/AD) were cultured as adherent monolayers in RPMI 1640 (Invitrogen) growth media containing L-glutamine and folic acid supplemented with 10,000 units penicillin, 10 mg/ml streptomycin (Sigma) and 10% (v/v) fetal bovine serum (Sigma). Cells were incubated and grown in a VWR mammalian incubator at 5% CO2 and 95% humidity. All preparations for cell culture and assays were conducted in a sterile environment under a Labconco Purifier I Laminar flow hood. Cells were cultured in Millipore 250 mL culture bottles with vented lids.
The proliferation of the exponential phase cultures of A2780/AD were assessed by colorimetric assay. WSK-8 (Dojindo) was performed according to manufacturer's instruction. Adherent cell cultures were harvested by stripping of culture flask by a non-enzymatic cell stripper (Mediatech) after a 30 minute incubation period. The cells were then collected. The cell density was adjusted with the addition of RPMI 1640 media to 80,000 cells/mL for exponential growth for the period of drug exposure. To each well, aliquots of 100 μL were inoculated resulting in 8,000 cells per well. After a 24 h incubation time to facilitate adherence, the media was removed and replaced with 200 μl of fresh media containing different concentrations of compounds 11, 12, and 13. The cells were then incubated for 24 and 72 h. Optical densities were measured at 450 nm using a plate reader. The percentage of cell viability was determined relative to untreated control microcultures. The IC50 concentrations were calculated based on a sigmoidal (doseresponse) fit using OriginLabs 8 software with R^2 values ≧0.70 in all cases (average R^2 value 0.90). All experimental points were measured in triplicate and each experiment was performed at least three times on separate “batches” of synthesized compound. A2780/AD2O cells used were fewer than 12 passages for all testing.

[3] = test system: adriamycin-resistant human ovarian cancer cell line (A2780/AD); conditions: dimeric complexes previously reported (Ref 3), cited from earlier work
[4] = A2780/AD, 6 h exposure, read-out: IC50 6 h
[5] = A2780/AD, 24 h exposure, read-out: IC50 24 h
[6] = A2780/AD, 72 h exposure, read-out: IC50 72 h
[7] = 24 h exposure, read-out: IC50 24 h
[8] = 72 h exposure, read-out: IC50 72 h

O=P([O-])(O)OP(=O)([O-])O.[Co+2].c1cnc2c(c1)ccc1cccnc12.c1cnc2c(c1)ccc1cccnc12 [compound 1, [Co(phen)2(H2P2O7)].4H2O]
IC50 [1]: 0.03 to 0.08 µM | cytotoxic activity in words [1]: low nanomolar range | IC50 [1, 4]: > 1000 µM | IC50 [1, 5]: 5 µM | IC50 [1, 6]: 0.03 ± 0.02 µM

O=P([O-])(O)OP(=O)([O-])O.[Ni+2].c1cnc2c(c1)ccc1cccnc12.c1cnc2c(c1)ccc1cccnc12 [compound 2, [Ni(phen)2(H2P2O7)].8H2O]
cytotoxic activity in words [1]: little activity | IC50 [1, 4]: > 1000 µM | IC50 [1, 5]: > 1000 µM | IC50 [1, 6]: 630 ± 390 µM | toxicity in words [2]: low nanomolar inhibitory concentrations

O.O=P([O-])(O)OP(=O)([O-])O.[Cu+2].c1cnc2c(c1)ccc1cccnc12 [compound 3, [Cu(phen)(H2O)(H2P2O7)]]
cytotoxic activity in words [1]: low nanomolar range | IC50 [1, 4]: 14 ± 6 µM | IC50 [1, 5]: 0.7 µM | IC50 [1, 6]: 0.14 ± 0.05 µM | IC50 ([2]; 72 h, read-out: IC50 at 72 h): ~0.000162 µM

O.O.O.O.O.O.O.O.O.O.O.O.O.O.O.O=P([O-])([O-])OP(=O)([O-])[O-].[Cu+2].[Na+].[Na+].c1cnc2c(c1)ccc1cccnc12 [compound 4, {[Cu(phen)(H2O)(P2O7)] [Na2(H2O)8]}.6H2O]
IC50 [1]: 0.03 to 0.08 µM | cytotoxic activity in words [1]: low nanomolar range | IC50 [1, 4]: 15 ± 6 µM | IC50 [1, 5]: 0.6 ± 0.6 µM | IC50 [1, 6]: 0.08 ± 0.03 µM

O=P([O-])([O-])OP(=O)([O-])[O-].[Ni+2].[Ni+2].c1cnc2c(c1)ccc1cccnc12.c1cnc2c(c1)ccc1cccnc12.c1cnc2c(c1)ccc1cccnc12.c1cnc2c(c1)ccc1cccnc12 [compound 11, {[Ni(phen)2]2(μ-P2O7)}.27H2O]
IC50 ([3]; 24 h, read-out: IC50 24 h): 590 µM | IC50 ([3]; 72 h, read-out: IC50 72 h): 304 µM | toxicity in words [2]: low toxicity | IC50 [2, 7]: 589 ± 31.6 µM | IC50 [2, 8]: 304 ± 40.9 µM

O.O.O.O.O.O.O.O.O.O.O=P([O-])([O-])OP(=O)([O-])[O-].[Cu+2].[Cu+2].c1cnc2c(c1)ccc1cccnc12.c1cnc2c(c1)ccc1cccnc12 [compound 12, {[Cu(phen)(H2O)]2(μ-P2O7)}.8H2O]
IC50 ([3]; 24 h, read-out: IC50 24 h): 0.6 µM | IC50 ([3]; 72 h, read-out: IC50 72 h): 0.0018 µM | toxicity in words [2]: significant toxicity | IC50 [2, 7]: 0.64 ± 0.12 µM

O=P([O-])([O-])OP(=O)([O-])[O-].[Co+2].[Co+2].c1cnc2c(c1)ccc1cccnc12.c1cnc2c(c1)ccc1cccnc12.c1cnc2c(c1)ccc1cccnc12.c1cnc2c(c1)ccc1cccnc12 [compound 13, {[Co(phen)2]2(μ-25 P2O7)}.6MeOH]
IC50 ([3]; 24 h, read-out: IC50 24 h): 2 µM | IC50 ([3]; 72 h, read-out: IC50 72 h): 0.00017 µM | toxicity in words [2]: significant toxicity | IC50 [2, 7]: 2.01 ± 0.86 µM | IC50 ([2]; 72 h, read-out: IC50 at 72 h): 0.00016 µM

cis-[Pt(NH3)2Cl2] [Cisplatin, reference compound]
IC50 [1, 4]: > 160 µM | IC50 [1, 5]: 200 ± 16 µM | IC50 [1, 6]: 13 ± 5 µM | IC50 [2, 7]: 84 ± 10.3 µM | IC50 [2, 8]: 11 ± 1.5 µM
